Literature values as cited in US20060002865A1, “Stable baking soda/peroxide with calcium and phosphate whitening product” (priority 2004, published 2006).

Legend:
[1] = aqueous solution, pH about 7.0, about 25° C.

**Q.** With [Mg+2].[O-][O-] [Magnesium peroxide] as the compound, how does the “solubility in water (in words)” value read?
**A.** Its value is “essentially insoluble”.

**Q.** Which solubility in water does the source give for Sodium perborate here?
**A.** The solubility in water was “about 2.5%”.

**Q.** With O.O.O=P([O-])([O-])O.[Ca+2] [dicalcium phosphate dihydrate] as the compound, how does the calcium cations released [1] read?
**A.** Its calcium cations released is “about 40 ppm”.
